Measured values from US20240336981A1, “PANELS AND METHODS FOR DIAGNOSING AND TREATING LUNG CANCER” (The Broad Institute, Inc., priority 2021, published 2024).

Key:
CDK3 and CDK7 = details: cited from earlier work
non-CDK kinases = details: with the exception of GSK3beta; cited from earlier work
[1] = test system: lung adenocarcinoma (LUAD) cell lines; test: Proliferation assay (IncuCyte confluency); type: cell-based; details: for proliferation (response) of S3 cell lines compared to the S4 and unassigned cell lines: S3 lines HCC78, HCC827, NCIH1975, NCIH1838, 4 days
Excerpt: lung adenocarcinoma (LUAD) cell lines were used (HCC78, HCC827, NCIH1975, NCIH1838, NCIH1395, NCIH1833, NCIH1755, ABC1, CALU3). Tests for mycoplasma contamination were negative. Cells were maintained in RPMI 1640 medium supplemented with 10% fetal bovine serum and 1% penicillin-streptomycin.
The media and drugs were replenished every 2-3 days. Continuous cell growth was monitored in 96-well plates every 3 hr for 4 days using the IncuCyte Kinetic Imaging System. The relative confluency was analyzed using IncuCyte software. The reported response percentage for each cell line was calculated as the percent of confluency compared to their DMSO treated counterpart. Proliferation assays were repeated 4 times.

EGFR = EGFR (Homo sapiens, UniProt P00533); details: cited from earlier work
Chain of EGFR (P00533 25-1210): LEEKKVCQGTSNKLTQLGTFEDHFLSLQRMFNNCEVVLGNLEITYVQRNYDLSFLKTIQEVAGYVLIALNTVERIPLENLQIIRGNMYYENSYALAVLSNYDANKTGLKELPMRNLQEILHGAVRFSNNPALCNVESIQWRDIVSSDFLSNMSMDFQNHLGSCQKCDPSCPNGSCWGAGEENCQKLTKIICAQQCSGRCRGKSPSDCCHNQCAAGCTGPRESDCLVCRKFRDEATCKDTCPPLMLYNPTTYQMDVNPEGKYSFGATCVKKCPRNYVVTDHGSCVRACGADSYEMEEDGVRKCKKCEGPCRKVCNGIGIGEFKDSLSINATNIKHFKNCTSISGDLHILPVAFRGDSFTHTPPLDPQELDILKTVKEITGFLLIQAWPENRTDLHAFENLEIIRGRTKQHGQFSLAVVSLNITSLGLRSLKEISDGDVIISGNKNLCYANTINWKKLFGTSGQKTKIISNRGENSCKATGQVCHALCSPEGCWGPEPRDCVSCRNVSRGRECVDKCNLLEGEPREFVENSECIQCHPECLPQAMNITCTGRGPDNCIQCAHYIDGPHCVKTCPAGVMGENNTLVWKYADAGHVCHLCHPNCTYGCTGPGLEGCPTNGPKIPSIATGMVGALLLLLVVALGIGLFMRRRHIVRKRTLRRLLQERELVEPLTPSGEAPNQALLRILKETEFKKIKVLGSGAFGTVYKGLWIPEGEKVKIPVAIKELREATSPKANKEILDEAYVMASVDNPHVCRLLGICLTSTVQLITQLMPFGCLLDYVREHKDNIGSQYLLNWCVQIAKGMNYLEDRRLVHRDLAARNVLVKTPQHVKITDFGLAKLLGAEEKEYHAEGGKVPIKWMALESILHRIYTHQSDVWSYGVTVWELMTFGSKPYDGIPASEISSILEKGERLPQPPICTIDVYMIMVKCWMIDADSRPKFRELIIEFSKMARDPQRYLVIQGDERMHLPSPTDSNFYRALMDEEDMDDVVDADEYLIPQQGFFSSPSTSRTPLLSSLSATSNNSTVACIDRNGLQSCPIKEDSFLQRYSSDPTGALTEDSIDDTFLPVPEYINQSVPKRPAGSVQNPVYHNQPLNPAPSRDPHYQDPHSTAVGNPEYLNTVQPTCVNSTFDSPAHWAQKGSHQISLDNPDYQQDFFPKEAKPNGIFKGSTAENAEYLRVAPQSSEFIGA

HER-3 = HER-3 (Homo sapiens, UniProt P21860); details: cited from earlier work
Chain of HER-3 (P21860 20-1342): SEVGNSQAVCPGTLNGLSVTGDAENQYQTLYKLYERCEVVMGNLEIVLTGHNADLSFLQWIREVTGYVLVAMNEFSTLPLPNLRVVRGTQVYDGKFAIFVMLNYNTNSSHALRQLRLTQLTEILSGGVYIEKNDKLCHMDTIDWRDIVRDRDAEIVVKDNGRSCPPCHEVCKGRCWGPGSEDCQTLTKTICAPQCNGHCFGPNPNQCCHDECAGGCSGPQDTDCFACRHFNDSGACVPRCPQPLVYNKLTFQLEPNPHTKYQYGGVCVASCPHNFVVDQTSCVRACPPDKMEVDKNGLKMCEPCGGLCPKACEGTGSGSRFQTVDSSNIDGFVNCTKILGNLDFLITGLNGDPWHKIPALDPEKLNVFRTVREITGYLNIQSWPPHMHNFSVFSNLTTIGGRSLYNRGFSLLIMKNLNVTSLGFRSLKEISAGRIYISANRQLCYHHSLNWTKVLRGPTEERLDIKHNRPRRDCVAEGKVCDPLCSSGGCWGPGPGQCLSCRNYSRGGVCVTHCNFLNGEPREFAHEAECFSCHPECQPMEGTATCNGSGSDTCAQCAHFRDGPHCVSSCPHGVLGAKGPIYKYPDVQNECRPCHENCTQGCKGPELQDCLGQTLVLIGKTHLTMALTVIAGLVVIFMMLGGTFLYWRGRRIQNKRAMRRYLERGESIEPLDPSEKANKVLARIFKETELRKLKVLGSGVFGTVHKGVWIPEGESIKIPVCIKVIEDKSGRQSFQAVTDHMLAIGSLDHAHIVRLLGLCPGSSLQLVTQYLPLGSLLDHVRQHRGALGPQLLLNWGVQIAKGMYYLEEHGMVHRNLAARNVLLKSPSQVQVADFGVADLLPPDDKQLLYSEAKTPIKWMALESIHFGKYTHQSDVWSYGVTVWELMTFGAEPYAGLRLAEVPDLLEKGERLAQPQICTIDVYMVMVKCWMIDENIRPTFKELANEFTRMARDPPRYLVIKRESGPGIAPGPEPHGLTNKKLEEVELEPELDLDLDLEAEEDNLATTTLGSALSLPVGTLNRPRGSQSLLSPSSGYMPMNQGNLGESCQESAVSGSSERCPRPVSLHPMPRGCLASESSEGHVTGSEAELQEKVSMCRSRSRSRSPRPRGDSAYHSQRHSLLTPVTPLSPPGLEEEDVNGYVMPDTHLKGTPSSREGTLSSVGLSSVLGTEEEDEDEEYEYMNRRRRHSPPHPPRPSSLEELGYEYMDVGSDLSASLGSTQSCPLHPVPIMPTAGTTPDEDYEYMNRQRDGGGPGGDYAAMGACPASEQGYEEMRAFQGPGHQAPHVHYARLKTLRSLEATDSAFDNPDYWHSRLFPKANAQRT

[2] = test system: tumor-bearing animal models such as breast, colon, lung cancers, and hepatocellular carcinoma; details: in vivo; cited from earlier work
HER2 = HER2 (Homo sapiens, UniProt P04626); details: in vitro; cited from earlier work
Chain of HER2 (P04626 23-1255): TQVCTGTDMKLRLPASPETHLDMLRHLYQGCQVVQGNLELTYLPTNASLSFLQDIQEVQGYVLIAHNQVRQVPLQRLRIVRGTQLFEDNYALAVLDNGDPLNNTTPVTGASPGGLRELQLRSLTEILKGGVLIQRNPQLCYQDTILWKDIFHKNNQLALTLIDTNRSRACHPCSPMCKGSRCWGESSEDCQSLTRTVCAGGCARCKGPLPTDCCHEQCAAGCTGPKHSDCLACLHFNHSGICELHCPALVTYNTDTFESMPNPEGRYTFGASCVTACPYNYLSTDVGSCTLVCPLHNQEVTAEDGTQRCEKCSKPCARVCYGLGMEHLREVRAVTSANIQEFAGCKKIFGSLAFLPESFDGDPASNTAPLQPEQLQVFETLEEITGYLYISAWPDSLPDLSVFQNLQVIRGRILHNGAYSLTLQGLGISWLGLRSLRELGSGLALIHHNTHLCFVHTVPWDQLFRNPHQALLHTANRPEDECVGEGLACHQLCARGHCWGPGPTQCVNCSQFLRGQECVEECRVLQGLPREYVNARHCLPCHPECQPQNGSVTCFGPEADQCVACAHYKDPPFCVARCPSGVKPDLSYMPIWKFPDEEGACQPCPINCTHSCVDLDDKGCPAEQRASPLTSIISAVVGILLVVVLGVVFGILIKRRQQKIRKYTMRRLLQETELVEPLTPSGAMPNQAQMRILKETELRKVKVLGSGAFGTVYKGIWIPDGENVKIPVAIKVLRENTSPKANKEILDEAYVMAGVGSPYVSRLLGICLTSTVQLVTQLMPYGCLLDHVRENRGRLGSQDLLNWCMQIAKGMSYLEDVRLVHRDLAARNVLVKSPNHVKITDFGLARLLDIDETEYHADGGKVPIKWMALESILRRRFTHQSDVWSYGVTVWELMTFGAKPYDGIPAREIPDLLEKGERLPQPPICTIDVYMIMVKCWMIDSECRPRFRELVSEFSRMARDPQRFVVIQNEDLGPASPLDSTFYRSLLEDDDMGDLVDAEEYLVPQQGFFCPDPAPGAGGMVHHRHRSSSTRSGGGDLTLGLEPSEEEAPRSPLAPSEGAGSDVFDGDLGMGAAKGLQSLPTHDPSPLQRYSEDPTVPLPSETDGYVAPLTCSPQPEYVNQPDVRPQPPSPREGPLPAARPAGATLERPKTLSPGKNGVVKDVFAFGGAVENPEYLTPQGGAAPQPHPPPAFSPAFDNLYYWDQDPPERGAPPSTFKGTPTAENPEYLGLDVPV

BLK = BLK (Homo sapiens, UniProt P51451); details: in vitro; cited from earlier work
HER4 = HER4 (Homo sapiens, UniProt Q15303); details: in vitro; cited from earlier work
Chain of HER4 (Q15303 26-1308): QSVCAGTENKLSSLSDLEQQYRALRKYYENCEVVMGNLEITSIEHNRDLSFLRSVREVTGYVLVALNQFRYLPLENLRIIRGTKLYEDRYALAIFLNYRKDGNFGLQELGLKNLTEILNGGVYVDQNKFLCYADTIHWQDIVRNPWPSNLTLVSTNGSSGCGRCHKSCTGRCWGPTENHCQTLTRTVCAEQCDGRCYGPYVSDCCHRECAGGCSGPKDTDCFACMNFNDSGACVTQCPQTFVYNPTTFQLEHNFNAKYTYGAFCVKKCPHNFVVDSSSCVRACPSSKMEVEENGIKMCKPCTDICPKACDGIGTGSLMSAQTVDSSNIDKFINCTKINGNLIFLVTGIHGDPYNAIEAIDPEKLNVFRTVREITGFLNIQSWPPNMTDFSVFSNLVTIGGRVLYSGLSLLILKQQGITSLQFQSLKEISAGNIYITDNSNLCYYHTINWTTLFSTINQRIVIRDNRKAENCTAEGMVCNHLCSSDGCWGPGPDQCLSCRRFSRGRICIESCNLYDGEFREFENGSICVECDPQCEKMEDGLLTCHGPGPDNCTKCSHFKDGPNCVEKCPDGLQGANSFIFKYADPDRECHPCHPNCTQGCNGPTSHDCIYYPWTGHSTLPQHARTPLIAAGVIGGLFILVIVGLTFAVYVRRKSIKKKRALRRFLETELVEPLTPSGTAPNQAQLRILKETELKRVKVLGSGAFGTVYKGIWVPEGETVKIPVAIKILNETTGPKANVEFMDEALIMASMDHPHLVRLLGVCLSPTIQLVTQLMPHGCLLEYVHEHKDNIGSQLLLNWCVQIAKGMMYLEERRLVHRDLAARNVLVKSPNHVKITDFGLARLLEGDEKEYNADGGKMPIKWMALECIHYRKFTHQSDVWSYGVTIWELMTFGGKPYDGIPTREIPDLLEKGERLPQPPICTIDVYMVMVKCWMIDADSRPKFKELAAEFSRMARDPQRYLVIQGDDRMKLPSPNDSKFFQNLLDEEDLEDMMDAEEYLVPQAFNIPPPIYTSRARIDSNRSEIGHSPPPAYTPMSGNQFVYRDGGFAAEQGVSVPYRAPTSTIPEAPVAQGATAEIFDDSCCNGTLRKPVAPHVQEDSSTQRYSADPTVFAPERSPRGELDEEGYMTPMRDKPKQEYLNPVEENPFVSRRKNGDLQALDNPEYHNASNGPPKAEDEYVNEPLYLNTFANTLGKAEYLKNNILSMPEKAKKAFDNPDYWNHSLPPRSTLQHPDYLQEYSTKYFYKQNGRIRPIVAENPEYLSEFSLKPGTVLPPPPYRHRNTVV

[3] = test system: mutant forms of EGFR (T790M, L858R, and exon 19 deletion); details: exon 19 deletion vs wild-type; cited from earlier work
PD-L1 = test: Immunofluorescence staining with anti-PD-L1 antibody; type: cell-based; details: tivantinib-treated cells vs controls; all subtypes; quantified with ImageJ
Protocol: The following antibody was used for immunofluorescence staining—Recombinant Alexa Fluor® 488 Anti-PD-L1 antibody (ab209959). […] Cells were then fixed in 4% paraformaldehyde for 10 min and washed twice in cold PBS. Fluor® 488 Anti-PD-L1 antibody was added for 1 hr incubation in a light protected environment at room temperature followed by staining nuclei with DAPI. Fluorescence images were captured using Invitrogen™ EVOS™ FL Imaging System by Thermo Fisher Scientific. The fluorescent increase was further quantified using ImageJ software.

For `O=C(NC1CCNCC1)c1n[nH]cc1NC(=O)c1c(Cl)cccc1Cl` [AT7519], the “potency against other CDKs tested” value (CDK3 and CDK7) is given as “lower potency” and the “activity against non-CDK kinases tested” value (non-CDK kinases) is given as “inactive”.
With `CCNc1cc(N[C@H]2CC[C@H](O)CC2)nc(Nc2ccc3c(ccn3Cc3ccccc3)c2)n1` [CINK4] the “proliferation (response) of S3 cell lines compared to the S4 and unassigned cell lines” value ([1]; CDK4/6 Inhibitor IV 1.5 μM (CDK4 specific concentration), confluency vs DMSO) was “significantly lower proliferation (higher response)”.
For `CNC(=O)c1ccc(-c2cnc3ncc(Cc4ccc5ncccc5c4)n3n2)cc1F` [Capmatinib], the “activity against EGFR” value (EGFR) is listed as “ATP-competitive small molecule. Targets - c-Met. Little activity against EGFR and HER- 3” and the “activity against HER-3” value (HER-3) is listed as “ATP-competitive small molecule. Targets - c-Met. Little activity against EGFR and HER- 3”.
For `Cc1cccc(-c2nn3c(c2-c2ccnc4ccc(C(N)=O)cc24)CCC3)n1` [Galunisertib], the antitumor activity [2] is given as “antitumor activity”.
In the case of `C=CC(=O)Nc1cc(Nc2ncc(C(=O)OC(C)C)c(-c3cn(C)c4ccccc34)n2)c(OC)cc1N(C)CCN(C)C` [Mobocertinib], the IC50 (HER2) is given as < 2 nM, the IC50 (BLK) is given as < 2 nM and the IC50 (HER4) is given as < 2 nM.
In the case of `C=CC(=O)Nc1cc(Nc2nccc(-c3cn(C)c4ccccc34)n2)c(OC)cc1N(C)CCN(C)C` [Osimertinib], the “concentrations for binding mutant EGFR lower than wild-type” value [3] is listed as “approximately 9 fold”.
In the case of `CC(=O)c1c(C)c2cnc(Nc3ccc(N4CCNCC4)cn3)nc2n(C2CCCC2)c1=O` [Palbociclib], the “proliferation (response) of S3 cell lines compared to the S4 and unassigned cell lines” value ([1]; Palbociclib 11 nM (CDK4 concentration), confluency vs DMSO) is reported as “significantly lower proliferation (higher response)” and the “proliferation at higher doses” value ([1]; higher doses of palbociclib (CDK4/6 concentration 16 nM), all cell lines) is reported as “inhibited proliferation in all cell lines”.
In the case of `O=C1NC(=O)[C@@H](c2cn3c4c(cccc24)CCC3)[C@@H]1c1c[nH]c2ccccc12` [Tivantinib], the “response of S3 compared to the other assigned groups” value ([1]; Tivantinib 3 μM, 4-day proliferation assay, confluency vs DMSO) is reported as “significantly increased response” and the “PD-L1 levels in response to c-MET inhibition” value (PD-L1) is reported as “significant increase”.
